Reference: article PMC7031696 (Cell chemical biology, 2019)
Where two headings read alike, the source gives them in different places.

What was measured:
[1] = test system: 3D7-A10 or Dd2-B2 parasites; details: 3 × IC50^72h drug concentrations; ref Phillips et al., 2015; cited from earlier work
[2] = test system: asynchronous 3D7-A10 parasite cultures; assay: Standard 72-h exposure asexual blood stage susceptibility assay (IC50^72h); assay type: cell-based, Plasmodium falciparum; details: Plasmodium falciparum, 3D7, 72 h, read-out: Overall (72hr assay) Mean IC50 (IC50^72h)
[3] = test system: Plasmodium falciparum 3D7-A10 parasites; assay: Stage specificity assay (8-h exposure of synchronized stages, IC50^8h); assay type: cell-based; details: for IC50: Plasmodium falciparum
[4] = test system: 3D7-MR4 trophozoite parasite-infected RBCs; assay: Metabolomic profiling (hydrophilic metabolite changes, UHPLC-MS); assay type: cell-based, Plasmodium falciparum

## O=C1C(O)=C([C@H]2CC[C@H](c3ccc(Cl)cc3)CC2)C(=O)c2ccccc21 [Atovaquone, reference compound]
[1]
  minimum inoculum for resistance: 2 × 10^7 parasites
[2]
  IC50: 1.1 nM
[3]; 8-h exposures
  overall activity profile (stages on which active): activity against late trophozoites only
[3]; 8-h exposures, survival curves
  killing in stage specificity assay: incomplete killing
[3]; 3D7, read-out: Early rings Mean IC50, shift 2
  IC50: 553 nM
[3]; 3D7, read-out: Early trophozoites Mean IC50, shift 1
  IC50: 0.68 nM
[3]; 3D7, read-out: Early trophozoites Mean IC50, shift 2
  IC50: 619 nM
[3]; 3D7, read-out: Late rings Mean IC50, shift 2
  IC50: 324 nM
[3]; 3D7, read-out: Late trophozoites Mean IC50, shift 1
  IC50: 3.7 nM
[3]; 3D7, read-out: Schizonts IC50, shift 2
  IC50: > 25000 nM
[3]; 3D7, read-out: Schizonts Mean IC50, shift 1
  IC50: 7.4 nM
[3]; early trophozoite and schizont stages
  shape of survival curve: biphasic survival curve
[3]; period when the parasite was most susceptible (lowest IC50^8h)
  Stage of peak activity (Figure 6): late trophozoite stages
[3]; stage(s) with the lowest IC50^8h
  Peak Activity (Table S1): Late Trophs
[4]
  Log2(fold change) Myristoyl/tetradecanoyl-CoA: -0.0411
  Log2(fold change) Octoluse 8/1P: 0.0910
  Log2(fold change) succinate/Methylmalonic acid: -0.8517
  Log2(fold change) succinyl-CoA/methylmalonyl-CoA: -0.2938
  Log2(fold change) threonine/homoserine: 0.0177
[4]; 10 × IC50^72h, 2.5 hr, trophozoites
  metabolic signature: increases in the pyrimidine precursors dihydroorotate and N-carbamoyl-L-aspartate (mETC disruption): observed
[4]; metabolite 3-phosphoglycerate, log2 fold change
  Log2(fold changes) 3-phosphoglycerate: -0.1329
[4]; metabolite 4-Pyridoxic acid, log2 fold change
  Log2(fold changes) 4-Pyridoxic acid: 0.0014
[4]; metabolite 4-aminobutyrate, log2 fold change
  Log2(fold changes) 4-aminobutyrate: 0.1923
[4]; metabolite 4-phosphopantetheine, log2 fold change
  Log2(fold changes) 4-phosphopantetheine: 0.0048
[4]; metabolite 4-phosphopantothenate, log2 fold change
  Log2(fold changes) 4-phosphopantothenate: -0.3512
[4]; metabolite 5-aminopentanoic acid, log2 fold change
  Log2(fold changes) 5-aminopentanoic acid: -0.0149
[4]; metabolite 5-methyl-THF, log2 fold change
  Log2(fold changes) 5-methyl-THF: -0.0146
[4]; metabolite 5-phosphoribosyl-1-pyrophosphate, log2 fold change
  Log2(fold changes) 5-phosphoribosyl-1-pyrophosphate: -0.1198
[4]; metabolite 6-phospho-D-gluconate, log2 fold change
  Log2(fold changes) 6-phospho-D-gluconate: 0.0051
[4]; metabolite HVDD
  Log2(fold change) HVDD: 0.0262
[4]; metabolite Hydroxyisocaproic acid
  Log2(fold change) Hydroxyisocaproic acid: -0.0150
[4]; metabolite IDP
  Log2(fold change) IDP: 0.0185
[4]; metabolite IMP
  Log2(fold change) IMP: 0.1599
[4]; metabolite Inositol
  Log2(fold change) Inositol: 0.0000
[4]; metabolite Isopentyl-PP
  Log2(fold change) Isopentyl-PP: -0.0191
[4]; metabolite L-arginino-succinate
  Log2(fold change) L-arginino-succinate: 0.1909
[4]; metabolite LD
  Log2(fold change) LD: 0.1960
[4]; metabolite N-Acetyl-L-alanine
  Log2(fold change) N-Acetyl-L-alanine: -0.3227
[4]; metabolite N-acetyl-L-ornithine
  Log2(fold change) N-acetyl-L-ornithine: 0.1921
[4]; metabolite N-acetyl-glucosamine-1/6-phosphate
  Log2(fold change) N-acetyl-glucosamine-1/6-phosphate: 0.3531
[4]; metabolite N-acetyl-glutamate
  Log2(fold change) N-acetyl-glutamate: 0.0422
[4]; metabolite N-acetyl-glutamine
  Log2(fold change) N-acetyl-glutamine: -0.1228
[4]; metabolite N-carbamoyl-L-aspartate
  Log2(fold change) N-carbamoyl-L-aspartate: 2.7565
[4]; metabolite NAD+
  Log2(fold change) NAD+: -0.0365
[4]; metabolite NADH
  Log2(fold change) NADH: -0.0409
[4]; metabolite NADP+
  Log2(fold change) NADP+: 0.1141
[4]; metabolite NADPH
  Log2(fold change) NADPH: -0.0085
[4]; metabolite O-acetyl-L-serine
  Log2(fold change) O-acetyl-L-serine: 0.0000
[4]; metabolite Octoluse Bisphosphate
  Log2(fold change) Octoluse Bisphosphate: -0.0867
[4]; metabolite PD
  Log2(fold change) PD: 0.2066
[4]; metabolite PE
  Log2(fold change) PE: 0.2833
[4]; metabolite PEE
  Log2(fold change) PEE: 0.1525
[4]; metabolite PEEK
  Log2(fold change) PEEK: 0.2544
[4]; metabolite PVNF
  Log2(fold change) PVNF: -0.1256
[4]; metabolite Pyroglutamic acid
  Log2(fold change) Pyroglutamic acid: -0.4514
[4]; metabolite Pyrophosphate
  Log2(fold change) Pyrophosphate: -0.0311
[4]; metabolite Ribose-5-phosphate
  Log2(fold change) Ribose-5-phosphate: -0.0776
[4]; metabolite S-adenosyl-L-homocysteine
  Log2(fold change) S-adenosyl-L-homocysteine: -0.0546
[4]; metabolite S-adenosyl-L-methioninamine
  Log2(fold change) S-adenosyl-L-methioninamine: 0.0342
[4]; metabolite S-adenosyl-L-methionine
  Log2(fold change) S-adenosyl-L-methionine: 0.0000
[4]; metabolite S-methyl-5'-thioadenosine
  Log2(fold change) S-methyl-5'-thioadenosine: 0.1207
[4]; metabolite SD
  Log2(fold change) SD: 0.1611
[4]; metabolite SDL
  Log2(fold change) SDL: 0.0455
[4]; metabolite SID
  Log2(fold change) SID: 0.0448
[4]; metabolite Sedoheptulose bisphosphate
  Log2(fold change) Sedoheptulose bisphosphate: -0.0991
[4]; metabolite Thiamine pyrophosphate
  Log2(fold change) Thiamine pyrophosphate: 0.0203
[4]; metabolite UDP-D-glucose, log2 fold change
  Log2(fold changes) UDP-D-glucose: 0.0102
[4]; metabolite UDP-D-glucuronate, log2 fold change
  Log2(fold changes) UDP-D-glucuronate: -0.0044
[4]; metabolite UDP-N-acetyl-glucosamine, log2 fold change
  Log2(fold changes) UDP-N-acetyl-glucosamine: -0.2854
[4]; metabolite UDP, log2 fold change
  Log2(fold changes) UDP: -1.0636
[4]; metabolite UMP, log2 fold change
  Log2(fold changes) UMP: -0.5975
[4]; metabolite UTP, log2 fold change
  Log2(fold changes) UTP: -1.2395
[4]; metabolite hydroxyphenylpyruvate
  Log2(fold change) hydroxyphenylpyruvate: 0.0147
[4]; metabolite hydroxyproline/Aminolevulinate
  Log2(fold change) hydroxyproline/Aminolevulinate: -0.0689
[4]; metabolite hypoxanthine
  Log2(fold change) hypoxanthine: -0.2575
[4]; metabolite indole
  Log2(fold change) indole: -0.1736
[4]; metabolite inosine
  Log2(fold change) inosine: -0.1123
[4]; metabolite isoleucine
  Log2(fold change) isoleucine: -0.2949
[4]; metabolite lactate
  Log2(fold change) lactate: -0.5142
[4]; metabolite leucine
  Log2(fold change) leucine: -0.2842
[4]; metabolite lysine
  Log2(fold change) lysine: 0.3188
[4]; metabolite malate
  Log2(fold change) malate: -0.2336
[4]; metabolite maleic acid
  Log2(fold change) maleic acid: -0.1204
[4]; metabolite methionine
  Log2(fold change) methionine: -0.2848
[4]; metabolite myo-inositol
  Log2(fold change) myo-inositol: -0.2098
[4]; metabolite nicotinamide mononucleotide
  Log2(fold change) nicotinamide mononucleotide: -0.0768
[4]; metabolite nicotinate
  Log2(fold change) nicotinate: -0.1572
[4]; metabolite ornithine
  Log2(fold change) ornithine: 0.0045
[4]; metabolite orotate
  Log2(fold change) orotate: 0.1233
[4]; metabolite orotidine-5'-phosphate
  Log2(fold change) orotidine-5'-phosphate: -0.3697
[4]; metabolite oxaloacetate
  Log2(fold change) oxaloacetate: -0.0126
[4]; metabolite p-aminobenzoate
  Log2(fold change) p-aminobenzoate: -0.0050
[4]; metabolite p-hydroxybenzoate
  Log2(fold change) p-hydroxybenzoate: 0.0562
[4]; metabolite pantothenate
  Log2(fold change) pantothenate: -0.2044
[4]; metabolite phenylalanine
  Log2(fold change) phenylalanine: -0.3684
[4]; metabolite phenylpyruvate
  Log2(fold change) phenylpyruvate: 0.0000
[4]; metabolite phosphoenolpyruvate
  Log2(fold change) phosphoenolpyruvate: -0.0614
[4]; metabolite prephenate
  Log2(fold change) prephenate: -0.0378
[4]; metabolite proline
  Log2(fold change) proline: -0.1933
[4]; metabolite pyridoxine
  Log2(fold change) pyridoxine: -0.3758
[4]; metabolite pyruvate
  Log2(fold change) pyruvate: -0.8812
[4]; metabolite riboflavin
  Log2(fold change) riboflavin: -0.0986
[4]; metabolite ribose
  Log2(fold change) ribose: -0.0745
[4]; metabolite ribose-phosphate
  Log2(fold change) ribose-phosphate: -0.1162
[4]; metabolite ribulose-5-phosphate
  Log2(fold change) ribulose-5-phosphate: -0.1031
[4]; metabolite serine
  Log2(fold change) serine: 0.0478
[4]; metabolite sn-glycerol-3-phosphate
  Log2(fold change) sn-glycerol-3-phosphate: 0.1848
[4]; metabolite taurine
  Log2(fold change) taurine: 0.0315
[4]; metabolite thiamine
  Log2(fold change) thiamine: -0.0450
[4]; metabolite thymidine
  Log2(fold change) thymidine: -0.1873
[4]; metabolite thymine, log2 fold change
  Log2(fold changes) thymine: 0.0000
[4]; metabolite trehalose-6-Phosphate, log2 fold change
  Log2(fold changes) trehalose-6-Phosphate: 0.0905
[4]; metabolite tryptophan, log2 fold change
  Log2(fold changes) tryptophan: -0.2480
[4]; metabolite tyrosine, log2 fold change
  Log2(fold changes) tyrosine: -0.2052
[4]; metabolite uridine, log2 fold change
  Log2(fold changes) uridine: -0.2906
